Where a name gives a salt, the structure may show the parent alone.
Tests used:
[1] = cited from earlier work; for Average weight loss/one year: vs. 3% placebo
[2] = Dissolution / solubility observations of ingredients

Compound	patients with 5% weight loss/12 weeks [1] [% patients]	patients with 10% weight loss/12 weeks [1] [% patients]	Average weight loss/one year [1] [%]	further results
CC(C)(N)Cc1ccccc1 [ADIPEX, Phentermine]	80	50	10	–
C[C@H]1[C@H](c2ccccc2)OCCN1C.O=C(O)C(O)C(O)C(=O)O [ADIPOST]	80	50	10	–
CN1CCCC(n2nc(Cc3ccc(Cl)cc3)c3ccccc3c2=O)CC1 (stereo not shown) [Azelastine hydrochloride, Azelastine Hydrochloride]	–	–	–	time to dissolve in purified water with stirring ([2]; added as second ingredient after Purified Water): approximately 5 minutes
C[C@H]1CNCCc2ccc(Cl)cc21 [BELVIQ, Lorcaserin]	–	–	–	weight loss/year vs. placebo ([1]; per year): 3-5%
C[C@H]1[C@H](c2ccccc2)OCCN1C [BONTRIL, Phendimetrazine]	80	50	10	–
C[C@@H](Cc1ccccc1)N(C)Cc1ccccc1 [DIDREX, Benzphetamine]	80	50	10	–
CNCCC(Oc1ccc(C(F)(F)F)cc1)c1ccccc1 (stereo not shown) [PROZAC, Fluoxetine]	–	–	–	evidence of weight loss ([1]; in vivo): No evidence of weight loss
CCN(CC)C(C)C(=O)c1ccccc1 (stereo not shown) [TENUATE, Diethylpropion]	80	50	10	–
CC1(C)O[C@@H]2[C@@H](CO[C@@]3(COS(N)(=O)=O)OC(C)(C)O[C@@H]23)O1 [TOPAMAX, Topiramate]	–	–	–	efficacy (vs. placebo) ([1]; in vivo): Minimal, if any efficacy
CCCCCCCCCCC[C@@H](C[C@@H]1OC(=O)[C@H]1CCCCCC)OC(=O)[C@H](CC(C)C)NC=O [XENICAL, Orlistat]	–	–	–	weight loss (vs. placebo)/6 months ([1]; 6 months): 5%
CN[C@H]1CC[C@@H](c2ccc(Cl)c(Cl)c2)c2ccccc21 [ZOLOFT, Sertraline]	–	–	–	evidence of weight loss ([1]; in vivo): No evidence of weight loss
Glycerol ester of hydrogenated rosin [GEHR]	–	–	–	solubility in aqueous solutions [2]: poorly soluble

— patent publication US20240122848A1, “APPETITE SUPPRESSANT” (priority 2017, published 2024)
